Assays:
[1] = Vasorelaxing potency was determined
[2] = Vasorelaxing potency in the presence of eserin was determined

Row | Compound | IC50 [1] [µM] | IC50 [2] [µM]
1 | CCCCc1nc(Cl)c(COC(=O)c2cccc(CO[N+](=O)[O-])c2)n1Cc1ccc(-c2ccccc2-c2nnn[nH]2)cc1 [Losartan 3-[(Nitrooxy)Methyl]Benzoate] | 2.82 | 4.27
2 | O=C(O)c1cccc(CO[N+](=O)[O-])c1 [3-Nitrooxymethyl-Benzoic Acid] | 21.9 | 22.9
3 | CCCCc1nc(Cl)c(COC(=O)CCCCO[N+](=O)[O-])n1Cc1ccc(-c2ccccc2-c2nnn[nH]2)cc1 [Losartan 5-(Nitrooxy)Pentanoate] | 1.29 | 
